Assays:
[1] = molecular target: T1, Sodium/glucose cotransporter 2 (Homo sapiens, UniProt P31639); experiment: (§1) In Vitro Assay: The inhibitory activity of the compounds of this invention against the SGLT-1 or SGLT-2 transporters.
T1 sequence (P31639 whole entry): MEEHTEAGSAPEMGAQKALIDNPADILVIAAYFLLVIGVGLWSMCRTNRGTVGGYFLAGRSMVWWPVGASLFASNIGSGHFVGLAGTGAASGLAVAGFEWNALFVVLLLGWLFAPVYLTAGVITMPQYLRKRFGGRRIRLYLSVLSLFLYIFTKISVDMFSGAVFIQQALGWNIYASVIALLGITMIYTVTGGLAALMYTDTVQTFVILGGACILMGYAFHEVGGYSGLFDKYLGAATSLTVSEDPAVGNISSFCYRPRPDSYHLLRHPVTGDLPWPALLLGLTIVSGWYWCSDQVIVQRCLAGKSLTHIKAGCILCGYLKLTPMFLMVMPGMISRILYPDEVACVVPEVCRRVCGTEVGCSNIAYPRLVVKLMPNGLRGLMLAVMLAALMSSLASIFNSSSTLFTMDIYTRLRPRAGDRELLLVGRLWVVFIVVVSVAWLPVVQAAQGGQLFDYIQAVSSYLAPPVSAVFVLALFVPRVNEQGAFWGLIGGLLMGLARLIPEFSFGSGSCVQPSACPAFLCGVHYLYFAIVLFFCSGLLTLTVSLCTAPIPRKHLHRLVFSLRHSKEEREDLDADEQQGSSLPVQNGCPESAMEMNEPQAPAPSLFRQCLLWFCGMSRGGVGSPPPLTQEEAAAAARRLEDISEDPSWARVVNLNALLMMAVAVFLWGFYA

[2] = molecular target: T2, Sodium/glucose cotransporter 1 (Homo sapiens, UniProt P13866); experiment: as §1
T2 sequence (P13866 whole entry): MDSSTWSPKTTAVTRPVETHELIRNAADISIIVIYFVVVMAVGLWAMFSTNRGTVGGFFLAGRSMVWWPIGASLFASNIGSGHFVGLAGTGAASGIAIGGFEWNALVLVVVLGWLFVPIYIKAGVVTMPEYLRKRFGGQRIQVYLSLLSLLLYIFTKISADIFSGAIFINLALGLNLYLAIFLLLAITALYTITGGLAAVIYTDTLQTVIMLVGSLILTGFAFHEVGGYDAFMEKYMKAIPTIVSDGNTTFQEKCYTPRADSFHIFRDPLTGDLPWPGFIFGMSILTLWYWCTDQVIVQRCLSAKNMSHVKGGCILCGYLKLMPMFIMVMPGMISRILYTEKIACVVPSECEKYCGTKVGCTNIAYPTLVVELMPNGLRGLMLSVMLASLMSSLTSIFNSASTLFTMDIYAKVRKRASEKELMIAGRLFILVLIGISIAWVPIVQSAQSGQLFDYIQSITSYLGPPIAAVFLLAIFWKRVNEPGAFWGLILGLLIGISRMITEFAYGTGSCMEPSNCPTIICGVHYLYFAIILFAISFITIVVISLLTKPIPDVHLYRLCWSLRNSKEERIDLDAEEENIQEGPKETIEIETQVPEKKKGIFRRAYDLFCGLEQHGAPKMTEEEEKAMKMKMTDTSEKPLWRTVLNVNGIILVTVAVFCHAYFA

## N#CC1(c2ccc3nn(Cc4cc([C@@H]5O[C@H](CO)[C@@H](O)[C@H](O)[C@H]5O)ccc4Cl)c(=O)n3c2)CC1
[1]
  IC50: 223 nM
[2]
  IC50: > 90000 nM

## O=c1n(Cc2cc([C@@H]3O[C@H](CO)[C@@H](O)[C@H](O)[C@H]3O)ccc2Cl)nc2cc(Cl)ccn12
[1]
  IC50: 91 nM
[2]
  IC50: > 90000 nM
